This note sets out measurements from US20130116206A1, “QUINOLINE DERIVATIVES USED AS PET IMAGING AGENTS” (IMPERIAL INNOVATIONS LIMITED, priority 2009, published 2013).

Structures can show the parent of a compound that is named as a salt. Where two headings read alike, the source gives them in different places.

Assay [1] deals with T1, EGFR kinase (Homo sapiens, UniProt P00533).
T1 construct: purchased Sigma E-3641
Description: EGFR tyrosine kinase enzyme inhibition assay (cell free, DELFIA time resolved fluorescence). The settings on record: for IC50 / EGFR kinase activity IC50, range in words: cell free kinase assay. In kind it is biochemical. The method, then:
Assessment of the EGFR tyrosine kinase activity of control quinoline 1 together with quinolines 10, 13, 14, 17, 18, 24 and 25 was carried out using a cell free kinase activity inhibition assay as detailed below. BPDQ (4-N-(3-bromophenyl)quinazoline-4,6,7-triamine), a quinazoline based EGFR inhibitor was also included in this assay as a further reference standard.
The inhibitory activity of quinolines 1, 10, 13, 14, 17, 18, 24 and 25 against EGFR kinase activity was measured by a time resolved fluorescence assay (DELFIA, Perkin-Elmer Life Sciences, Boston, Mass., USA). […] The reaction proceeded at rt for 1 h and was stopped by addition of 100 mM EDTA. The enzyme reaction solution was diluted and aliquots added to 96-well ELISA streptavidin plates with shaking for 1 h. The plates were washed and phosphorylated Tyrosine was detected with Eu-labeled antiphosphotyrosine antibody (50 ng/well; PT66; PerkinElmer). After washing and enhancement steps, the plates were assessed in a Victor^3 multi-label counter (PerkinElmer) using the EGFR Europium protocol.

Assay [2] concerns the target T2, EGFR autophosphorylation in A431 cells (Homo sapiens, UniProt P00533).
T2 construct: highly EGFR-expressing A431 cells; endogenous in cells; host or cells: A431 human epidermoid cancer cells (ATCC)
Put plainly: Inhibition of EGFR autophosphorylation in A431 cells (Western blot p-EGFR/total EGFR). Type of assay: cell-based. The settings on record: for IC50: 3 h drug incubation then washing with drug free medium, mean ± sem, n = 3. The method, then: The ability of the compounds to be transported across cell membranes and to inhibit EGFR autophosphorylation was examined in highly EGFR-expressing A431 cells.
The cells were maintained in DMEM (Sigma-Aldrich Company Ltd, Dorset, UK) supplemented with 10% fetal bovine serum (Lonza, UK), and 2 mM L-glutamine, 100 U/ml penicillin, 100 μg/mL streptomycin and 1 μg/mL fungizone (GIBCO) in 6 well plates incubated at 37° C. in a humidified incubator with 5% CO2. The experiments were designed to assess irreversibility of EGFR inhibition by the compounds. Cells in exponential growth were incubated with quinolines 1, 10, 13, 14, 17, 18, 24 and 25 at various concentrations for 3 h. EGF (100 ng/ml) was added to the cells during the last 15 min to induce p-EGFR. The medium was removed and replaced with fresh compound-free medium for 1 h. The last step was then repeated twice. The cells were then washed with cold PBS and lysed in RIPA buffer (Invitrogen Ltd, Paisley, UK) supplemented with protease and phosphatase inhibitor cocktails (Sigma-Aldrich Company Ltd, Dorset, UK). Lysates were clarified by centrifugation. The following antibodies were used: rabbit polyclonal antibody anti-p-EGFR (Cell signalling Technology, Denver, Mass.; 1:1000) and rabbit polyclonal antibody anti-EGFR (Santa Cruz Biotechnology, Santa Cruz, Calif.; 1:1000) and mouse monoclonal antibody anti-β-actin (Abcam, UK; 1:10000) as primary antibodies. The secondary antibodies were Goat anti Rabbit IgG HRP (Santa Cruz Biotechnology Santa Cruz, Calif.; 1:2000) and Goat anti Mouse IgG HRP (Autogen Bioclear, UK; 1:2000). The same procedure was used to assess EGFR and phospho-EGFR expression in HCT116 human colon carcinoma cells.
In general terms: In western blotting, separated proteins are transferred to a membrane and probed.

[3] abbreviates: 25 μM ATP, read-out: IC50 (nM) EGFR kinase activity.

T2 sequence (P00533 25-1210): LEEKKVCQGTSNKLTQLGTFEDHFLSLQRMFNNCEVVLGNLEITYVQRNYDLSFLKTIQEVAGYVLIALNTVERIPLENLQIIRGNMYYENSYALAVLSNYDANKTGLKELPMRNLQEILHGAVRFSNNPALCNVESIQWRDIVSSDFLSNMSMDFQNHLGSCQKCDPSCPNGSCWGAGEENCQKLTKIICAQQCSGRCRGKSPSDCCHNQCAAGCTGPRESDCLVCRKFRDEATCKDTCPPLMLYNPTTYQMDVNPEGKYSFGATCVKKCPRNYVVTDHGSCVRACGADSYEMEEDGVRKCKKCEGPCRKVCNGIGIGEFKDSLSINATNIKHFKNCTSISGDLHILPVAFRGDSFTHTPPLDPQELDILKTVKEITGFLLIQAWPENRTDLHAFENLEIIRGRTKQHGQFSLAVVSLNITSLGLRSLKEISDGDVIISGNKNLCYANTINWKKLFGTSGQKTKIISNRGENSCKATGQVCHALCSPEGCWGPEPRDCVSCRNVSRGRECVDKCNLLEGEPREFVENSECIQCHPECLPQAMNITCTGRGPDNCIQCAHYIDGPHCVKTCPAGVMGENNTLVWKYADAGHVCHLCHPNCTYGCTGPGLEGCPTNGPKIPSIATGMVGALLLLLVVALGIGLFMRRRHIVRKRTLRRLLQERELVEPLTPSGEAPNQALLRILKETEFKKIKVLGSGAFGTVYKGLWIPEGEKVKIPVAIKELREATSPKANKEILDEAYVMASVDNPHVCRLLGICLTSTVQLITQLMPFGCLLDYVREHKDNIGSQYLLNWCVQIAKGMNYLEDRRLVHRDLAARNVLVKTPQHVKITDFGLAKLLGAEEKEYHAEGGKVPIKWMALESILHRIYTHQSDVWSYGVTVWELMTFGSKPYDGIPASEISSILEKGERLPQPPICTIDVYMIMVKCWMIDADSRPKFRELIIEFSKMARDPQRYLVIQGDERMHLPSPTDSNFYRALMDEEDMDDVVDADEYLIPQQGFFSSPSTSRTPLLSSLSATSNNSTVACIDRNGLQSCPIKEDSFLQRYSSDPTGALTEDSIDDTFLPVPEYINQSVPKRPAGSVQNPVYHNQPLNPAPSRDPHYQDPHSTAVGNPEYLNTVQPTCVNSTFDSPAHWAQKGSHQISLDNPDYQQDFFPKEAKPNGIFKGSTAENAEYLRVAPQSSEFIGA
T1 sequence (P00533 25-1210): as above

For the molecule `CNC/C=C/C(=O)Nc1cc2c(Nc3ccc(F)c(Cl)c3)c(C#N)cnc2cc1OCCF.Cl` [compound 24, (E)-4-Methylamino-but-2-enoic acid [4-(3-chloro-4-fluorophenylamino)-3-cyano-7-(2-fluoroethoxy)-quinolin-6-yl]-amide hydrochloride], the IC50 (in general, the point on the concentration scale where inhibition reaches its midpoint) is 0.29 ± 0.03 nM in assay [1] (setting [3]) and 8.12 ± 2.03 nM in assay [2]. Further, in assay [2], the “Cellular EGFR autophosphorylation inhibition, IC50 in words” value is “low nanomolar range”.

As for `CCOc1cc2ncc(C#N)c(Nc3ccc(F)c(Cl)c3)c2cc1NC(=O)/C=C/CN(C)Cc1ccc(F)cc1` [compound 14, (E)-4-[(4-Fluorobenzyl)methylamino]-but-2-enoic acid [4-(3-chloro-4-fluorophenylamino)-3-cyano-7-ethoxyquinoline-6-yl]amide], in assay [1], the “EGFR kinase activity IC50, range in words” value (from here on “EGFR kinase activity IC50”) was “sub-nanomolar”. Also, in assay [1] (setting [3]), the IC50 turned out to be 0.57 ± 0.12 nM. In assay [2], the “Cellular EGFR autophosphorylation inhibition, IC50 in words” value is “low nanomolar range” and the IC50 is 16.5 ± 8.38 nM.

Turning to `C#CCNC/C=C/C(=O)Nc1cc2c(Nc3ccc(F)c(Cl)c3)c(C#N)cnc2cc1OCC.Cl` [compound 25, (E)-4-Prop-2-ynylaminobut-2-enoic acid [4-(3-chloro-4-fluorophenylamino)-3-cyano-7-ethoxy-quinolin-6-yl]-amide hydrochloride], the IC50 in assay [1] (read-out: EGFR kinase activity IC50) is 0.03 nM. In assay [2], the “Cellular EGFR autophosphorylation inhibition, IC50 in words” value was “low nanomolar range” and the IC50 was determined as 60.2 ± 17.1 nM.

On to `CCOc1cc2ncc(C#N)c(Nc3ccc(F)c(Cl)c3)c2cc1NC(=O)/C=C/CNCc1cn(CCF)nn1` [compound 17, (E)-4-{[1-(2-Fluoro-ethyl)-1H-[1,2,3]triazol-4-ylmethyl]-amino}-but-2-enoic acid [4-(3-chloro-4-fluoro-phenylamino)-3-cyano-7-ethoxy-quinolin-6-yl]-amide hydrochloride], for which, in assay [1] (17 compared with 18), the “EGFR kinase activity relative to quinoline 18” value is “two-fold more active than 18”. Besides, the IC50 in assay [1] (setting [3]) came out at 1.81 ± 0.18 nM. Also, in assay [2], the “Cellular EGFR autophosphorylation inhibition, IC50 in words” value is listed as “low nanomolar range” and half-maximal inhibition (IC50) was put at 22 ± 9.06 nM.

As for `CCOc1cc2ncc(C#N)c(Nc3ccc(F)c(Cl)c3)c2cc1NC(=O)/C=C/CN(C)CCF` [compound 13, (E)-4-[(2-Fluoroethyl)methylamino]-but-2-enoic acid [4-(3-chloro-4-fluorophenylamino)-3-cyano-7-ethoxyquinoline-6-yl]amide], in assay [1], the “EGFR kinase activity IC50” value is recorded as “sub-nanomolar”. Moreover, the IC50 in assay [1] (setting [3]) was 0.8 ± 0.04 nM. Further, in assay [2], the “Cellular EGFR autophosphorylation inhibition, IC50 in words” value is “low nanomolar range” and the IC50 came to 23 ± 12 nM.

As for `Nc1cc2ncnc(Nc3cccc(Br)c3)c2cc1N` [BPDQ, 4-N-(3-bromophenyl)quinazoline-4,6,7-triamine, reference compound], the IC50 in assay [1] (setting [3]) came out at 0.81 ± 0.01 nM.

As for `CCOc1cc2ncc(C#N)c(Nc3ccc(F)c(Cl)c3)c2cc1NC(=O)/C=C/CNC` [compound 10, (E)-4-(Methylamino)-but-2-enoic acid [4-(3-chloro-4-fluorophenylamino)-3-cyano-7-ethoxy-quinoline-6-yl]amide], the “EGFR kinase activity IC50” value in assay [1] is on record as “sub-nanomolar”. Also, the IC50 in assay [1] (setting [3]) was 0.25 ± 0.06 nM; in assay [2], 5.35 ± 1.52 nM. For the same molecule, in assay [2], the “Cellular EGFR autophosphorylation inhibition, IC50 in words” value was “low nanomolar range”.
